Data published in patent US20250346569A1, “NEW DERIVATIVES FOR TREATING TRPM3 MEDIATED DISORDERS” (Katholieke Universiteit Leuven, priority 2022, published 2025).

molecular target: T1, mouse TRPM3α2 (mTRPM3) ion channel (Mus musculus, UniProt J9SQF3); assay: Monitoring the TRPM3 ion channel driven Ca2+ uptake (Fluo-4 AM assay); type: cell-based; settings: TRPM3 overexpressing flip-in HEK293 cells, channel stimulated with Pregnenolone sulfate (PS) 50 μM
T1 construct: expressed in transfected cells; host or cells: flip-in HEK293
Method in brief: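 Flp-In HEK293 cells overexpressing mTRPM3α2, loaded with Fluo-4 AM and added to wells holding compound plus 50 μM pregnenolone sulfate in Ca2+-containing Krebs buffer. Fluorescence (ex 485/em 535) read right after cell addition. Inhibition normalised to vehicle and positive-control inhibitor; IC50 derived.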

T1 sequence (J9SQF3 1-1709 isoform J9SQF3-12): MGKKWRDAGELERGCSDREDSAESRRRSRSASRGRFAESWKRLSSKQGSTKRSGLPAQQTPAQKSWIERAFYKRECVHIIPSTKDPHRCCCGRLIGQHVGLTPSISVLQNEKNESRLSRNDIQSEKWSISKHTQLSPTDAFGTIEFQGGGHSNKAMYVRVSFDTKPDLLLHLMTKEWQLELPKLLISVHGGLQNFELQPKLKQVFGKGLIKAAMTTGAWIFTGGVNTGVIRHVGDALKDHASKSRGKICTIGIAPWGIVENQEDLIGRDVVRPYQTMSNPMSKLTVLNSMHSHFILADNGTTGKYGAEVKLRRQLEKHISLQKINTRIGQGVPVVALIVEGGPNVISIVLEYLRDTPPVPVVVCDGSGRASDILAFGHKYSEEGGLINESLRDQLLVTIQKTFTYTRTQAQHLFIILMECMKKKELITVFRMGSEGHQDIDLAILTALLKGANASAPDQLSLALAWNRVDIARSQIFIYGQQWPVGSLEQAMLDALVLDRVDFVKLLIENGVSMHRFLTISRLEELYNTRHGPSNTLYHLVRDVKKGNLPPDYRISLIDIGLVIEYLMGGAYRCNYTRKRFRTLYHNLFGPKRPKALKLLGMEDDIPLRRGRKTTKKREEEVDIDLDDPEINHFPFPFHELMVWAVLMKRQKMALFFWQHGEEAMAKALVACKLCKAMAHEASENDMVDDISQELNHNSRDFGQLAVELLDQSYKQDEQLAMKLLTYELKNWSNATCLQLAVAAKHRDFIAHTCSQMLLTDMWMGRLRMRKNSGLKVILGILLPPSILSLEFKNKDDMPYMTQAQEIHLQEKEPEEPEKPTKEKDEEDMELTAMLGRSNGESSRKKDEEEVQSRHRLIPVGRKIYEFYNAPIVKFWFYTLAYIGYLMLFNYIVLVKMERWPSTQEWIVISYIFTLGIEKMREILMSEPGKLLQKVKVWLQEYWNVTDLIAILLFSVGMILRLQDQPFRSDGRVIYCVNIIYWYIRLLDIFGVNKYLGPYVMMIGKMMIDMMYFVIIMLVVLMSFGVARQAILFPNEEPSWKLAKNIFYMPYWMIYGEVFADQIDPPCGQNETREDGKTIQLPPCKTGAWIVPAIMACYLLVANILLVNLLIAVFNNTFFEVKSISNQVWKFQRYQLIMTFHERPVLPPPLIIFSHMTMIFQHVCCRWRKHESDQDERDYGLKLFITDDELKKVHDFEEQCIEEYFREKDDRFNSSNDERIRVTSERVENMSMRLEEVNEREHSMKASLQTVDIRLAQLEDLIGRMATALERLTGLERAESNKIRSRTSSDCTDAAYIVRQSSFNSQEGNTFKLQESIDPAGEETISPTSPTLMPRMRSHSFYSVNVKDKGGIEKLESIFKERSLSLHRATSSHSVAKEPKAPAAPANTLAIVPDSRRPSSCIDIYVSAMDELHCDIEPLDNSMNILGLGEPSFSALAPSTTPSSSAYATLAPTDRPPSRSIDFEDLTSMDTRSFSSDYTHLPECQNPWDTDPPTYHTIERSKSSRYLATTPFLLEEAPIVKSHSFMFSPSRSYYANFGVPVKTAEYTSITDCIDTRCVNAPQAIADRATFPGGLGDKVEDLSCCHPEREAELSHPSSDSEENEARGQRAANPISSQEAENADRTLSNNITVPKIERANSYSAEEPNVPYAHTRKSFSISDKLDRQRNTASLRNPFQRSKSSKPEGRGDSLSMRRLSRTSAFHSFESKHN

Row | IC50 [nM] | SMILES
1 | 1000 to 20000 | CN1CC(NC(=O)c2c(C(F)F)sc3ccc(OCc4ccccc4)cc23)C(F)(F)C1 (stereo not shown) [Cpd 119, 5-(benzyloxy)-N-(4,4-difluoro-1-methylpyrrolidin-3-yl)-2-(difluoromethyl)-1-benzothiophene-3-carboxamide]
2 | < 1000 | Cc1ncc(COc2ccc3sc(C)c(C(=O)N[C@H](C)C(N)=O)c3c2)s1 [Cpd 005, (2R)-2-({2-methyl-5-[(2-methyl-1,3-thiazol-5-yl)methoxy]-1-benzothiophen-3-yl}formamido)propanamide]
3 | < 1000 | COc1ncccc1COc1ccc2sc(C)c(C(=O)NC3(CO)CCC3)c2c1 [Cpd 143, N-[1-(hydroxymethyl)cyclobutyl]-5-[(2-methoxypyridin-3-yl)methoxy]-2-methyl-1-benzothiophene-3-carboxamide]
4 | < 1000 | Cc1sc2ccc(OCc3ccccc3)cc2c1C(=O)NCC1(N(C)C)CCCC1 [Cpd 111, 5-(benzyloxy)-N-{[1-(dimethylamino)cyclopentyl]methyl}-2-methyl-1-benzothiophene-3-carboxamide]
5 | 1000 to 20000 | O=C(NC1CCOC1)c1c(C(F)F)sc2ccc(OCc3ccccc3)cc12 (stereo not shown) [Cpd 147, 5-(benzyloxy)-2-(difluoromethyl)-N-(oxolan-3-yl)-1-benzothiophene-3-carboxamide]
6 | < 1000 | Cc1sc2ccc(OCc3cccnc3C(F)(F)F)cc2c1C(=O)NCCN(C)C [Cpd 117, N-[2-(dimethylamino)ethyl]-2-methyl-5-{[2-(trifluoromethyl)pyridin-3-yl]methoxy}-1-benzothiophene-3-carboxamide]
7 | < 1000 | Cc1sc2ccc(OCc3ccccc3)cc2c1C(=O)NC1CCN(C)C1 (stereo not shown) [Cpd 123, 5-(benzyloxy)-2-methyl-N-(1-methylpyrrolidin-3-yl)-1-benzothiophene-3-carboxamide]
8 | < 1000 | Cc1ncsc1COc1ccc2sc(C)c(C(=O)NC3CN(C)CC3(F)F)c2c1 (stereo not shown) [Cpd 122, N-(4,4-difluoro-1-methylpyrrolidin-3-yl)-2-methyl-5-[(4-methyl-1,3-thiazol-5-yl)methoxy]-1-benzothiophene-3-carboxamide]
9 | 1000 to 20000 | Cc1sc2ccc(OCc3cccnc3O)cc2c1C(=O)NC1(CO)CCC1 [Cpd 079, N-[1-(hydroxymethyl)cyclobutyl]-5-[(2-hydroxypyridin-3-yl)methoxy]-2-methyl-1-benzothiophene-3-carboxamide]
10 | < 1000 | Cc1ncsc1COc1ccc2sc(C)c(C(=O)NC3(CO)COC3)c2c1 [Cpd 037, N-[3-(hydroxymethyl)oxetan-3-yl]-2-methyl-5-[(4-methyl-1,3-thiazol-5-yl)methoxy]-1-benzothiophene-3-carboxamide]
11 | < 1000 | Cc1ncsc1COc1ccc2sc(C)c(C(=O)N[C@H](CO)C(N)=O)c2c1 [Cpd 029, (2R)-3-hydroxy-2-({2-methyl-5-[(4-methyl-1,3-thiazol-5-yl)methoxy]-1-benzothiophen-3-yl}formamido)propanamide]
12 | < 1000 | Cc1ncsc1COc1ccc2sc(C)c(C(=O)NC3(C(N)=O)COC3)c2c1 [Cpd 038, 3-{2-methyl-5-[(4-methyl-1,3-thiazol-5-yl)methoxy]-1-benzothiophene-3-amido}oxetane-3-carboxamide]
13 | < 1000 | Cc1sc2ccc(OCC3CC3)cc2c1C(=O)N[C@@H](CO)C(N)=O [Cpd 050, (2S)-2-{[5-(cyclopropylmethoxy)-2-methyl-1-benzothiophen-3-yl]formamido}-3-hydroxypropanamide]
14 | < 1000 | Cc1sc2ccc(OCc3cccnc3C(F)(F)F)cc2c1C(=O)NCC1CCC(=O)N1 (stereo not shown) [Cpd 103, 2-methyl-N-[(5-oxopyrrolidin-2-yl)methyl]-5-{[2-(trifluoromethyl)pyridin-3-yl]methoxy}-1-benzothiophene-3-carboxamide]
15 | < 1000 | Cc1sc2ccc(OCc3cccnc3C(F)(F)F)cc2c1C(=O)NC1(CO)CC1 [Cpd 076, N-[1-(hydroxymethyl)cyclopropyl]-2-methyl-5-{[2-(trifluoromethyl)pyridin-3-yl]methoxy}-1-benzothiophene-3-carboxamide]
16 | < 1000 | Cc1sc2ccc(OCc3cccnc3C(F)(F)F)cc2c1C(=O)N[C@@H](CO)C(N)=O [Cpd 053, (2S)-3-hydroxy-2-[(2-methyl-5-{[2-(trifluoromethyl)pyridin-3-yl]methoxy}-1-benzothiophen-3-yl)formamido]propanamide]
17 | < 1000 | Cc1sc2ccc(OCc3cccnc3C(F)(F)F)cc2c1C(=O)NCC1(N(C)C)CCCC1 [Cpd 113, N-{[1-(dimethylamino)cyclopentyl]methyl}-2-methyl-5-{[2-(trifluoromethyl)pyridin-3-yl]methoxy}-1-benzothiophene-3-carboxamide]
18 | > 20000 | O=C(NC1CC(F)(F)C1)c1c(C(F)F)sc2ccc(OCc3ccccc3)cc12 [Cpd 145, 5-(benzyloxy)-N-(3,3-difluorocyclobutyl)-2-(difluoromethyl)-1-benzothiophene-3-carboxamide]
19 | 1000 to 20000 | Cc1sc2ccc(OCc3cccnc3C(F)(F)F)cc2c1C(=O)NC1(CO)CCOCC1 [Cpd 083, N-[4-(hydroxymethyl)oxan-4-yl]-2-methyl-5-{[2-(trifluoromethyl)pyridin-3-yl]methoxy}-1-benzothiophene-3-carboxamide]

Row | IC50 [nM] | SMILES
20 | 1000 to 20000 | COc1ncccc1COc1ccc2sc(C)c(C(=O)NC3(CO)CCOCC3)c2c1 [Cpd 144, N-[4-(hydroxymethyl)oxan-4-yl]-5-[(2-methoxypyridin-3-yl)methoxy]-2-methyl-1-benzothiophene-3-carboxamide]
21 | 1000 to 20000 | Cc1sc2ccc(OCc3ccccn3)cc2c1C(=O)NC1(CO)CC1 [Cpd 075, N-[1-(hydroxymethyl)cyclopropyl]-2-methyl-5-[(pyridin-2-yl)methoxy]-1-benzothiophene-3-carboxamide]
22 | < 1000 | Cc1sc2ccc(OCc3ccccc3F)cc2c1C(=O)NC1(C(N)=O)CCOCC1 [Cpd 070, 4-{5-[(2-fluorophenyl)methoxy]-2-methyl-1-benzothiophene-3-amido}oxane-4-carboxamide]
23 | < 1000 | Cc1nc(COc2ccc3sc(C)c(C(=O)NC(C)(CO)C(N)=O)c3c2)cs1 (single isomer, unassigned) [Cpd 015 - En2, 3-hydroxy-2-methyl-2-({2-methyl-5-[(2-methyl-1,3-thiazol-4-yl)methoxy]-1-benzothiophen-3-yl}formamido)propanamide]
24 | < 1000 | Cc1sc2ccc(OCc3ccccc3F)cc2c1C(=O)NC1CCNC1=O (stereo not shown) [Cpd 093, 5-[(2-fluorophenyl)methoxy]-2-methyl-N-(2-oxopyrrolidin-3-yl)-1-benzothiophene-3-carboxamide]
25 | 1000 to 20000 | Cc1sc2ccc(OCc3cccnc3C(F)(F)F)cc2c1C(=O)NCC(C)(C)N1CCOCC1 [Cpd 099, 2-methyl-N-[2-methyl-2-(morpholin-4-yl)propyl]-5-{[2-(trifluoromethyl)pyridin-3-yl]methoxy}-1-benzothiophene-3-carboxamide]
26 | < 1000 | Cc1sc2ccc(OCc3ccccn3)cc2c1C(=O)NC1(CO)CCC1 [Cpd 078, N-[1-(hydroxymethyl)cyclobutyl]-2-methyl-5-[(pyridin-2-yl)methoxy]-1-benzothiophene-3-carboxamide]
27 | < 1000 | Cc1ncsc1COc1ccc2sc(C)c(C(=O)N[C@H](C)C(N)=O)c2c1 [Cpd 006, (2R)-2-({2-methyl-5-[(4-methyl-1,3-thiazol-5-yl)methoxy]-1-benzothiophen-3-yl}formamido)propanamide]
28 | 1000 to 20000 | Cc1sc2ccc(OCC3CCOCC3)cc2c1C(=O)NC(C)(CO)C(N)=O (single isomer, unassigned) [Cpd 067 - En2, 3-hydroxy-2-methyl-2-({2-methyl-5-[(oxan-4-yl)methoxy]-1-benzothiophen-3-yl}formamido)propanamide]
29 | < 1000 | Cc1sc2ccc(OCc3ccccc3F)cc2c1C(=O)NC(C)(C)C(N)=O [Cpd 063, 2-({5-[(2-fluorophenyl)methoxy]-2-methyl-1-benzothiophen-3-yl}formamido)-2-methylpropanamide]
30 | 1000 to 20000 | Cc1sc2ccc(OCc3ccccc3)cc2c1C(=O)NCC(C)(C)O [Cpd 100, 5-(benzyloxy)-N-(2-hydroxy-2-methylpropyl)-2-methyl-1-benzothiophene-3-carboxamide]
31 | < 1000 | Cc1ncsc1COc1ccc2sc(C)c(C(=O)NC3CCNC3=O)c2c1 (stereo not shown) [Cpd 041, 2-methyl-5-[(4-methyl-1,3-thiazol-5-yl)methoxy]-N-(2-oxopyrrolidin-3-yl)-1-benzothiophene-3-carboxamide]
32 | 1000 to 20000 | Cc1ncsc1COc1ccc2sc(C)c(C(=O)O)c2c1 [Cpd 049, 2-methyl-5-[(4-methyl-1,3-thiazol-5-yl)methoxy]-1-benzothiophene-3-carboxylic acid]
33 | < 1000 | Cc1ncc(COc2ccc3sc(C)c(C(=O)N[C@@H](C)C(N)=O)c3c2)s1 [Cpd 011, (2S)-2-({2-methyl-5-[(2-methyl-1,3-thiazol-5-yl)methoxy]-1-benzothiophen-3-yl}formamido)propanamide]
34 | 1000 to 20000 | CN1CCC(NC(=O)c2c(C(F)F)sc3ccc(OCc4ccccc4)cc23)C1 (stereo not shown) [Cpd 124, 5-(benzyloxy)-2-(difluoromethyl)-N-(1-methylpyrrolidin-3-yl)-1-benzothiophene-3-carboxamide]
35 | < 1000 | Cc1sc2ccc(OCc3ccccc3F)cc2c1C(=O)N[C@@H](CO)C(N)=O [Cpd 051, (2S)-2-({5-[(2-fluorophenyl)methoxy]-2-methyl-1-benzothiophen-3-yl}formamido)-3-hydroxypropanamide]
36 | < 1000 | Cc1ncsc1COc1ccc2sc(C)c(C(=O)NC3(CO)CCC3)c2c1 [Cpd 035, N-[1-(hydroxymethyl)cyclobutyl]-2-methyl-5-[(4-methyl-1,3-thiazol-5-yl)methoxy]-1-benzothiophene-3-carboxamide]
37 | > 20000 | Cc1sc2ccc(OCc3cccnc3C(F)(F)F)cc2c1C(=O)NC1CC(F)(F)C1 [Cpd 090, N-(3,3-difluorocyclobutyl)-2-methyl-5-{[2-(trifluoromethyl)pyridin-3-yl]methoxy}-1-benzothiophene-3-carboxamide]
